Data on 17 molecules can be found in PubChem BioAssay AID328 (DTP/NCI, 2004).

“And” between values parts separate entries of the source, which are not always exact repeats. Equal entries are not always repeated. Inconclusive results and toxic doses are left out.

In the assay the test system is BDF1 mice, P388 leukemia ip, median survival T/C. In words: NCI In Vivo Anticancer Drug Screen. Data for tumor model P388 Leukemia (intraperitoneal) in B6D2F1 (BDF1) mice. Conditions: endpoint: median survival time, higher = longer survival. The procedure, abridged: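 Steps: implant the tumour, treat one group with compound and another with vehicle, record survival, then divide treated by control.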

[1] abbreviates: dose: 12.5 mg/kg/injection, schedule: Q01DX009 (ip), vehicle: Klucel (hydroxypropylcellulose) (HPC).
[2] abbreviates: dose: 25.0 mg/kg/injection, schedule: Q01DX009 (ip), vehicle: Klucel (hydroxypropylcellulose) (HPC).
Setting [3] is: dose: 50.0 mg/kg/injection, schedule: Q01DX009 (ip), vehicle: Klucel (hydroxypropylcellulose) (HPC).
Where [4] appears, read: dose: 100.0 mg/kg/injection, schedule: Q04DX003 (ip), vehicle: Klucel (hydroxypropylcellulose) (HPC).
The mark [5] stands for this setting: dose: 200.0 mg/kg/injection, schedule: Q04DX003 (ip), vehicle: Klucel (hydroxypropylcellulose) (HPC).
Setting [6] is: dose: 12.5 mg/kg/injection, schedule: Q04DX003 (ip), vehicle: saline with Tween-80.
Setting [7] is: dose: 25.0 mg/kg/injection, schedule: Q01DX009 (ip), vehicle: saline with Tween-80.
Where [8] appears, read: dose: 25.0 mg/kg/injection, schedule: Q04DX003 (ip), vehicle: saline with Tween-80.
The mark [9] stands for this setting: dose: 100.0 mg/kg/injection, schedule: Q01DX009 (ip), vehicle: Klucel (hydroxypropylcellulose) (HPC).
Where [10] appears, read: dose: 400.0 mg/kg/injection, schedule: Q04DX003 (ip), vehicle: Klucel (hydroxypropylcellulose) (HPC).
Where [11] appears, read: dose: 12.5 mg/kg/injection, schedule: Q01DX009 (ip), vehicle: saline with Tween-80.
The mark [12] stands for this setting: dose: 50.0 mg/kg/injection, schedule: Q01DX009 (ip), vehicle: saline with Tween-80.
The mark [13] stands for this setting: dose: 100.0 mg/kg/injection, schedule: Q01DX009 (ip), vehicle: saline with Tween-80.
Where [14] appears, read: dose: 200.0 mg/kg/injection, schedule: Q01DX009 (ip), vehicle: saline with Tween-80.
Setting [15] is: dose: 50.0 mg/kg/injection, schedule: Q01DX001 (ip), vehicle: saline with Tween-80.

With `Cc1ccccc1-n1c(C)nc2ccccc2c1=O`, the T/C by setting is: under setting [1], 100 % of control; under setting [2], 96 % of control; under setting [3], 92 % of control; under setting [4], 104 % of control; under setting [5], 91 % of control.

For the molecule `C[n+]1ccc2cc(N)c3c4ccccc4sc3c2c1`, the T/C was 110 % of control and 119 % of control (dose: 3.12 mg/kg/injection, schedule: Q01DX009 (ip), vehicle: saline with Tween-80); 116 % of control (dose: 3.13 mg/kg/injection, schedule: Q01DX009 (ip), vehicle: Klucel (hydroxypropylcellulose) (HPC)); 123 % of control (dose: 6.25 mg/kg/injection, schedule: Q01DX009 (ip), vehicle: Klucel (hydroxypropylcellulose) (HPC)); 105 % of control (dose: 6.25 mg/kg/injection, schedule: Q04DX003 (ip), vehicle: saline with Tween-80); 156 % of control under setting [1]; 112 % of control under setting [6]. Also, the T/C was 170 % of control and 184 % of control under setting [2]; 172 % of control under setting [7]; 112 % of control under setting [8].

Turning to `CC(=O)Nc1ccc(N=Nc2ccccc2)cc1F`, the T/C under setting [9] is 120 % of control; the T/C under setting [4] was 104 % of control; the T/C under setting [5] was 108 % of control; the T/C (dose: 400.0 mg/kg/injection, schedule: Q01DX009 (ip), vehicle: Klucel (hydroxypropylcellulose) (HPC)) is 120 % of control; the T/C under setting [10] was 95 % of control.

With `O=C(CNC(=O)Nc1ccc(C2=NCCN2)cc1)Nc1ccc(C2=NCCN2)cc1`, the T/C under setting [11] was 104 % of control; the T/C under setting [6] was 100 % of control; the T/C (dose: 22.0 mg/kg/injection, schedule: Q01DX009 (ip), vehicle: saline with Tween-80) was 100 % of control; the T/C under setting [7] was 120 % of control; the T/C under setting [8] is 118 % of control; the T/C (dose: 33.0 mg/kg/injection, schedule: Q01DX009 (ip), vehicle: saline with Tween-80) is 114 % of control. The T/C runs as follows: under setting [12], 166 % of control; (dose: 50.0 mg/kg/injection, schedule: Q04DX003 (ip), vehicle: saline with Tween-80) 109 % of control; (dose: 75.0 mg/kg/injection, schedule: Q01DX009 (ip), vehicle: saline with Tween-80) 153 % of control.

Take `Nc1ccc2cn[nH]c2c1`: the T/C runs as follows: (dose: 25.0 mg/kg/injection, schedule: Q01DX009 (ip), vehicle: water) 99 % of control; (dose: 50.0 mg/kg/injection, schedule: Q01DX009 (ip), vehicle: water) 103 % of control; (dose: 50.0 mg/kg/injection, schedule: Q04DX003 (ip), vehicle: water) 103 % of control; (dose: 100.0 mg/kg/injection, schedule: Q01DX009 (ip), vehicle: water) 89 % of control; (dose: 100.0 mg/kg/injection, schedule: Q04DX003 (ip), vehicle: water) 116 % of control; (dose: 200.0 mg/kg/injection, schedule: Q01DX009 (ip), vehicle: water) 94 % of control. The T/C runs as follows: (dose: 200.0 mg/kg/injection, schedule: Q04DX003 (ip), vehicle: water) 110 % of control; (dose: 400.0 mg/kg/injection, schedule: Q01DX009 (ip), vehicle: water) 94 % of control; (dose: 400.0 mg/kg/injection, schedule: Q04DX003 (ip), vehicle: water) 116 % of control.

In the case of `Cc1ccc(Cl)c([N+](=O)[O-])c1N`, the T/C runs as follows: under setting [12], 104 % of control; under setting [13], 87 % of control; under setting [14], 91 % of control.

For the molecule `Cc1ccc(-c2c(O)c(Br)c(-c3ccc(C)cc3C)c(O)c2Br)c(C)c1`, the T/C is 100 % of control under setting [13]; 100 % of control under setting [14]; 100 % of control (dose: 400.0 mg/kg/injection, schedule: Q01DX009 (ip), vehicle: saline with Tween-80).

Turning to `Nc1cc2c(c(Cl)c1Br)-c1ccccc1C2=O`, the T/C reads like this: under setting [1], 90 % of control; under setting [2], 86 % of control; (dose: 100.0 mg/kg/injection, schedule: Q01DX001 (ip), vehicle: other) 86 % of control; (dose: 200.0 mg/kg/injection, schedule: Q01DX001 (ip), vehicle: other) 104 % of control; (dose: 400.0 mg/kg/injection, schedule: Q01DX001 (ip), vehicle: other) 104 % of control.

For the molecule `O=C1C(Cl)=C(Cl)C(=O)C(/C=C/N2CCOCC2)=C1Cl`, the T/C (dose: 6.25 mg/kg/injection, schedule: Q01DX001 (ip), vehicle: saline with Tween-80) is 109 % of control; the T/C (dose: 12.5 mg/kg/injection, schedule: Q01DX001 (ip), vehicle: saline with Tween-80) was 117 % of control; the T/C (dose: 25.0 mg/kg/injection, schedule: Q01DX001 (ip), vehicle: saline with Tween-80) was 104 % of control; the T/C under setting [15] was 113 % of control.

In the case of `CSc1ncc(C)c[n+]1-c1ccccc1`, the T/C runs as follows: (dose: 50.0 mg/kg/injection, schedule: Q04DX002 (ip), vehicle: saline with Tween-80) 106 % of control; (dose: 100.0 mg/kg/injection, schedule: Q04DX002 (ip), vehicle: saline with Tween-80) 107 % of control.

Turning to `c1c(NC2=NCCO2)cc2c3c1CCCN3CCC2`, the T/C was 104 % of control under setting [11], 118 % of control under setting [7] and 113 % of control under setting [12].

For `COc1c(Cl)cc2c(c1OC)N(C)C1N3C(=O)C4(C)SSC3(C(=O)N4C)C(O)C21O` (centres undefined), the T/C by setting is: (dose: 0.12 mg/kg/injection, schedule: Q01DX009 (ip), vehicle: Klucel (hydroxypropylcellulose) (HPC)) 86 % of control; (dose: 0.25 mg/kg/injection, schedule: Q01DX009 (ip), vehicle: Klucel (hydroxypropylcellulose) (HPC)) 109 % of control.

With `CC(=O)N1CCCC1=O`, the T/C is 95 % of control under setting [9]; 100 % of control under setting [4]; 86 % of control (dose: 200.0 mg/kg/injection, schedule: Q01DX009 (ip), vehicle: Klucel (hydroxypropylcellulose) (HPC)); 100 % of control under setting [5]; 100 % of control under setting [10].

Take `c1ccc(CNc2ncnc3[nH]ncc23)cc1`: the T/C runs as follows: (dose: 8.0 mg/kg/injection, schedule: Q01DX010 (ip), vehicle: saline) 86 % of control and 115 % of control; (dose: 16.0 mg/kg/injection, schedule: Q01DX010 (ip), vehicle: saline) 86 % of control and 100 % of control; (dose: 32.0 mg/kg/injection, schedule: Q01DX010 (ip), vehicle: saline) 95 % of control and 100 % of control; (dose: 64.0 mg/kg/injection, schedule: Q01DX010 (ip), vehicle: saline) 100 % of control.

Consider `O=C(O)c1cc(-c2ccc(Cl)cc2)nc2c(Cl)cccc12`, for which the T/C is, setting by setting: under setting [3], 100 % of control; (dose: 50.0 mg/kg/injection, schedule: Q04DX003 (ip), vehicle: Klucel (hydroxypropylcellulose) (HPC)) 91 % of control; under setting [9], 100 % of control; under setting [4], 86 % of control; under setting [5], 86 % of control.

In the case of `Cc1ccc(C(=S)NC(=O)Nc2ccccc2)cc1`, the T/C under setting [15] was 93 % of control; the T/C (dose: 100.0 mg/kg/injection, schedule: Q01DX001 (ip), vehicle: saline with Tween-80) was 92 % of control; the T/C (dose: 200.0 mg/kg/injection, schedule: Q01DX001 (ip), vehicle: saline with Tween-80) is 90 % of control.

`CSc1ccc(NC(=O)N(CCCl)N=O)cc1`: the T/C is 100 % of control (dose: 6.25 mg/kg/injection, schedule: Q01DX009 (ip), vehicle: saline); 90 % of control (dose: 6.25 mg/kg/injection, schedule: Q04DX003 (ip), vehicle: saline sonified); 100 % of control (dose: 11.0 mg/kg/injection, schedule: Q04DX003 (ip), vehicle: saline sonified); 100 % of control (dose: 12.5 mg/kg/injection, schedule: Q01DX009 (ip), vehicle: saline); 109 % of control (dose: 12.5 mg/kg/injection, schedule: Q04DX003 (ip), vehicle: saline sonified); 122 % of control (dose: 16.0 mg/kg/injection, schedule: Q04DX003 (ip), vehicle: saline sonified). Besides, the T/C reads like this: (dose: 25.0 mg/kg/injection, schedule: Q01DX009 (ip), vehicle: saline) 116 % of control; (dose: 37.5 mg/kg/injection, schedule: Q04DX003 (ip), vehicle: saline sonified) 122 % of control.
